From patent US20040241648A1, “Phosphoribosyl pyrophosphate synthetase 1as herbicidal target” (priority 2000, published 2004)

Molecular target: T1, Arabidopsis thaliana 5-phosphoribosyl-1-pyrophosphate synthetase 1 (Arabidopsis thaliana, UniProt Q42581)
T1 construct: His-tag (from vector pFastBacHTb); made in house; host or cells: Sf21 insect cells (recombinant baculovirus, pFASTBAC HTb-AtPrs1)
T1 sequence (Q42581 50-403): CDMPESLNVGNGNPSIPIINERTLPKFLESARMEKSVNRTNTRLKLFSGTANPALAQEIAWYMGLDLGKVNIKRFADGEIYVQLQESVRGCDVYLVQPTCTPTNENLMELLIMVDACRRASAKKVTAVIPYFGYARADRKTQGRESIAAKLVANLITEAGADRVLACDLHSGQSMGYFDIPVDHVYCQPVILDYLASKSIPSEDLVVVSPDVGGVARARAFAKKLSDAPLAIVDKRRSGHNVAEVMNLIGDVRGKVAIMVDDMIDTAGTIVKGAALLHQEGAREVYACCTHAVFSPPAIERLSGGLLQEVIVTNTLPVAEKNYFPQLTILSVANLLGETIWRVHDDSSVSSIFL
Assay: 5-Phosphoribosyl-1-pyrophosphate synthetase 1 assay system (photometric, coupled enzyme, drop in NADH at 340 nm)
Type: biochemical
Conditions: 0.5-5 mM inhibitor, recombinant enzyme from Sf21 insect cells, 18 μg total protein
Excerpt: To obtain active Arabidopsis thaliana 5-phosphoribosyl-1-pyrophosphate synthetase 1 for high-throughput screening methods, the Arabidopsis thaliana Prs1 fragment is obtained from vector pGEM-T AtPrs1 (FIG. 2) using the restriction enzymes BamHI and EcoRI (cleavage sites inserted via primers RBPRPP3 and RBPRPP4) and cloned into the identically cleaved transfer vector pFastBacHTb (GibcoBRL). The resulting construct pFASTBAC HTb-AtPrs1 is used in accordance with the manufacturer's instructions (GibcoBRL) for generating recombinant Baculovirus. This virus is employed in accordance with the manufacturer's instructions (GibcoBRL) for infecting Sf21 insect cells in order to generate active 5-phosphoribosyl-1-pyrophosphate synthetase 1 enzyme. The specific enzymatic phosphoribosyl-pyrophosphate synthetase 1 activity is measured photometrically after the cells have been sonicated. The following components are employed per 90 μl batch: […]
After the cells had been sonicated in lysis buffer (50 mM NaH2PO4, 300 mM NaCl, pH 7.8), 18 μg of total protein are employed. […] What is measured is the drop in NADH at 340 nm.

Nc1ncnc2c1ncn2[C@@H]1O[C@H](COP(=O)(O)OP(=O)(O)OP(=O)(O)O)C[C@H]1O [cordycepin-5′-triphosphate]
inhibition of the enzymatic activity of the plant 5-phosphoribosyl-1-pyrophosphate synthetase 1: inhibits the enzymatic activity
